Data on 45 compounds can be found in patent US10683279B2, “Apoptosis signal-regulating kinase 1 inhibitors and methods of use thereof” (Enanta Pharmaceuticals, Inc., priority 2017, dated 2020).

This test has as its target ASK1 (Homo sapiens (Human), UniProt Q99683). Briefly: ASK1 kinase inhibition, HTRF KinEASE Assay System (TR-FRET). Type of test: biochemical. Particulars: 5 nM ASK1 kinase, 1 uM STK3 peptide substrate, 100 uM ATP, 3 hours. The method, then: The ability (IC50) of compounds to inhibit ASK1 kinase activity was determined by HTRF® KinEASE™ Assay System.
ASK1 was purchased from Thermofisher (Catalogue # PV401.1), ATP was purchased from Sigma (Catalogue # A7699), HTRF® KinEASE™ Assay System was obtained from Cisbio (Bedford, Mass). ½ Area plate was purchased from Perkin Elmer (Catalogue # #6005560). HTRF® KinEASE™-STK is a generic method for measuring serine/threonine kinase activities using a time-resolved fluorescence resonance energy transfer (TR-FRET) immunoassay. The IC50 value for each compound was determined in the presence of compound (various concentration from 0 to 10 μM) and a fixed amount of ATP and peptide substrates. The test compound, luM STK3 peptide substrate, and 5 nM of ASK1 kinase are incubated with kinase reaction buffer containing 50 mM HEPES pH 7.5, 0.01% BRIJ-35, 10 mM MgCl2, and 1 mM EGTA for 30 minutes. 100 uM ATP is added to start kinase reaction and incubated for 3 hours. The STK3-antibody labeled with Eu^3+-Cryptate and 125 nM streptavidin-XL665 are mixed in a single addition with stop reagents provided by the Cisbio kit used to stop the kinase reaction. Fluorescence is detected using an Envision Multilabeled 2014 reader from PerkinElmer. The Fluorescence is measured at 615 nm (Cryptate) and 665 nm (XL665) and a ratio of 665 nm/615 nm is calculated for each well. The resulting TR-FRET is proportional to the phosphorylation level. Staurosporine was used as the positive control. IC50 was determined by XLfit 5.3.
By using above method, the inhibition of ASK1 was tested for the compound of formula (I). IC50 ranges are as follows: A<1 nM; 1 nM<B<10 nM; 10 nM<C<100 nM; 100 nM<D
On the technique in general: In TR-FRET formats the signal depends on donor and acceptor labels being close together.

Sequence of ASK1 (Q99683 whole entry): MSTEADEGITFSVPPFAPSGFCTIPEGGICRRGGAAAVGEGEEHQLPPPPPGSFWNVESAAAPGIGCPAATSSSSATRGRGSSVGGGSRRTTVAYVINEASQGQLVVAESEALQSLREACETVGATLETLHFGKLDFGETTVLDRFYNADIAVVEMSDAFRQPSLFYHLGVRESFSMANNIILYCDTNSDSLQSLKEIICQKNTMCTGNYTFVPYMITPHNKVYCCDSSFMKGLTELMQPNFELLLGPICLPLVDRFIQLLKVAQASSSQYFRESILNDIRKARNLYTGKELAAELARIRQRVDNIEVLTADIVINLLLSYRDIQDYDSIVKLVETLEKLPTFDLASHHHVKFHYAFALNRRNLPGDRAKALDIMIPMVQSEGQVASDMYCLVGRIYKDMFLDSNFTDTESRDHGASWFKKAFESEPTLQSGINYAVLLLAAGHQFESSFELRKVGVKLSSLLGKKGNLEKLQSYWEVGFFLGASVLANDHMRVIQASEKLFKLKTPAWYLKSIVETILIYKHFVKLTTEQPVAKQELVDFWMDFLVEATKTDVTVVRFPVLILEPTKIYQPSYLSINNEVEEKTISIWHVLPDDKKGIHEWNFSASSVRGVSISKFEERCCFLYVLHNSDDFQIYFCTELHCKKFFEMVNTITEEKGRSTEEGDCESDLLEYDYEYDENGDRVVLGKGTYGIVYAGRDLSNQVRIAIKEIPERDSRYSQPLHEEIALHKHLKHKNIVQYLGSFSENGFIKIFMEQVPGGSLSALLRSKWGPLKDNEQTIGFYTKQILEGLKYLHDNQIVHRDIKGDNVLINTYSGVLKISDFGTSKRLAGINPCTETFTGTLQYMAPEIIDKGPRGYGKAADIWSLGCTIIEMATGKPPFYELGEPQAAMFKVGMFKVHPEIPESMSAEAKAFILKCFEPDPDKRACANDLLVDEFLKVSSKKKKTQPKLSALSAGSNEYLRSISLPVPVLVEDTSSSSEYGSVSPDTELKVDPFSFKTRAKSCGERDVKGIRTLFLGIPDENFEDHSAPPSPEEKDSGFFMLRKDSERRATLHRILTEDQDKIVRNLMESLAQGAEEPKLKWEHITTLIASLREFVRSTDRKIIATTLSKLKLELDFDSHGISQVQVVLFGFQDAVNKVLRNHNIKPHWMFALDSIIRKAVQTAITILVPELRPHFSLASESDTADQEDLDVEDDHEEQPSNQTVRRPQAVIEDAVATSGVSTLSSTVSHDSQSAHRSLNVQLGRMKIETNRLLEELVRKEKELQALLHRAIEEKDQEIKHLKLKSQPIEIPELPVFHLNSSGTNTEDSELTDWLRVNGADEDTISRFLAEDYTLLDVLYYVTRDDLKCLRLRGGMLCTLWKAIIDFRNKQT

For the compound `Cc1cnc(C(=O)Nc2cccc(-c3nnnn3[C@H](C)CO)n2)cc1-n1cnc(C2CC2)c1` [Example 49a], the IC50 (as a rule, the concentration needed to halve the response being measured) is 1 to 10 nM.
Regarding `Cc1cc(F)c(C(=O)Nc2cccc(-c3nnnn3C3CCCC3)n2)cc1-n1cnc(C2CC2)c1` [Example 8a], the IC50 fell in the range of 1 to 10 nM.
`Cc1cnc(C(=O)Nc2cccc(-c3nnnn3C(C)C)n2)cc1-n1cnc(C(C)(C)C)c1` [Example 52a] displayed an IC50 of 1 to 10 nM.
The compound `CC(C)n1nnnc1-c1cccc(NC(=O)c2cc(-n3cnc(C4CC4)c3)c(C(F)F)cn2)n1` [Example 54a] displayed an IC50 of 1 to 10 nM.
As for `Cc1cc(F)c(C(=O)Nc2cccc(-c3nnnn3[C@@H](C)CF)n2)cc1-n1cnc(C2CC2)c1` [Example 15a], the IC50 was in the range of 1 to 10 nM.
Under `CC(C)n1nnnc1-c1cccc(NC(=O)c2cc(-n3cnc(C4CC4)c3)c(N3CCN(C)CC3)cn2)n1` [Example 47a] stands 1 to 10 nM; under `C[C@H](CO)n1nnnc1-c1cccc(NC(=O)c2cc(-n3cnc(C4CC4)c3)c(C(F)(F)F)cn2)n1` [Example 58a], 1 to 10 nM.
The compound `C[C@H](CO)n1nnnc1-c1cccc(NC(=O)c2cc(-n3cnc(C4CC4)c3)c(C(F)F)cc2F)n1` [Example 32a] showed an IC50 of 1 to 10 nM.
`CC(C)n1nnnc1-c1nc(NC(=O)c2cc(-n3cnc(C4CC4)c3)c(N3CCN(C)CC3)cn2)cs1` [Example 44a] displayed an IC50 of 1 to 10 nM.
As to `Cc1cc(F)c(C(=O)Nc2cccc(-c3nnnn3[C@@H](C)CO)n2)cc1-n1cnc(C2CC2)c1` [Example 5a, (S)-5-(4-cyclopropyl-1H-imidazol-1-yl)-2-fluoro-N-(6-(1-(1-hydroxypropan-2-yl)-1H-tetrazol-5-yl)pyridin-2-yl)-4-methylbenzamide], the IC50 is 1 to 10 nM.
Under `Cc1cc(F)c(C(=O)Nc2cccc(-c3nnnn3[C@H](C)CO)n2)cc1-n1cnc(C(C)(C)C)c1` [Example 30a] stands 1 to 10 nM; under `Cc1cc(F)c(C(=O)Nc2cccc(-c3nnnn3CC(C)C)n2)cc1-n1cnc(C2CC2)c1` [Example 9a], 10 to 100 nM; under `CC(C)n1nnnc1-c1cccc(NC(=O)c2cc(-n3cnc(C4CC4)c3)c(C(F)(F)F)cc2F)n1` [Example 37a], 1 to 10 nM.
Under `CC(C)n1nnnc1-c1cccc(NC(=O)c2cc(-n3cnc(C4CC4)c3)c(N3CCOCC3)cn2)n1` [Example 46a] stands 1 to 10 nM; under `CC(C)n1nnnc1-c1nc(NC(=O)c2cc(-n3cnc(C4CC4)c3)c(F)cn2)cs1` [Example 38a], 1 to 10 nM; under `CC(C)n1nnnc1-c1cccc(NC(=O)c2cc(-n3cnc(C4CC4)c3)c(N3CCCCC3)cn2)n1` [Example 40a], 10 to 100 nM.
Take `Cc1cc(F)c(C(=O)Nc2cccc(-n3nnnc3C(C)C)n2)cc1-n1cnc(C2CC2)c1` [Example 1b, 5-(4-cyclopropyl-1H-imidazol-1-yl)-2-fluoro-N-(6-(5-isopropyl-1H-tetrazol-1-yl)pyridin-2-yl)-4-methylbenzamide]: the IC50 fell in the range of 1 to 10 nM.
For the compound `Cc1cc(F)c(C(=O)Nc2cccc(-c3nnnn3CC(C)(C)C)n2)cc1-n1cnc(C2CC2)c1` [Example 13a], the IC50 is 1 to 10 nM.
Regarding `CC(=O)OCC[C@@H](C)n1nnnc1-c1cccc(NC(=O)c2cc(-n3cnc(C4CC4)c3)c(C)cc2F)n1` [Example 23a], the IC50 fell in the range of 1 to 10 nM.
As for `Cc1cc(F)c(C(=O)Nc2cccc(-c3nnnn3C(C)C)n2)cc1-n1cnc(C(C)(C)C)c1` [Example 29a], the IC50 fell in the range of 1 to 10 nM.
With `Cc1cnc(C(=O)Nc2cccc(-n3nnnc3C(C)C)n2)cc1-n1cnc(C(F)(F)F)c1` [Example 4b], the IC50 fell in the range of 10 to 100 nM.
Compound `Cc1cc(F)c(C(=O)Nc2cccc(-c3nnnn3[C@H](C)CO)n2)cc1-n1cnc(C2CC2)c1` [Example 7a, (R)-5-(4-cyclopropyl-1H-imidazol-1-yl)-2-fluoro-N-(6-(1-(1-hydroxypropan-2-yl)-1H-tetrazol-5-yl)pyridin-2-yl)-4-methylbenzamide] showed an IC50 of 1 to 10 nM.
Under `Cc1cc(F)c(C(=O)Nc2cccc(-c3nnnn3CC(F)F)n2)cc1-n1cnc(C2CC2)c1` [Example 12a] stands 1 to 10 nM; under `Cc1cc(F)c(C(=O)Nc2cccc(-c3nnnn3[C@H](C)CF)n2)cc1-n1cnc(C2CC2)c1` [Example 14a], 1 to 10 nM.
Under `CC(C)n1nnnc1-c1cccc(NC(=O)c2cc(-n3cnc(C4CC4)c3)c(N3CCCC3)cn2)n1` [Example 43a] stands 1 to 10 nM; under `Cc1cc(F)c(C(=O)Nc2cccc(-c3nnnn3C(C)C(F)(F)F)n2)cc1-n1cnc(C2CC2)c1` (stereo not drawn) [Example 16a], 10 to 100 nM; under `Cc1cnc(C(=O)Nc2cccc(-n3nnnc3C(C)C)n2)cc1-n1cnc(C(C)(C)C)c1` [Example 5b], 1 to 10 nM.
On to `CC(C)n1nnnc1-c1nc(NC(=O)c2cc(-n3cnc(C4CC4)c3)c(C(F)F)cn2)cs1` [Example 56a], for which the IC50 fell in the range of 1 to 10 nM.
Regarding `Cc1cc(F)c(C(=O)Nc2cccc(-c3nnnn3C(C)C)n2)cc1-n1cnc(C2CC2)c1` [Example 1a, 5-(4-cyclopropyl-1H-imidazol-1-yl)-2-fluoro-N-(6-(1-isopropyl-1H-tetrazol-5-yl)pyridin-2-yl)-4-methylbenzamide], the half-maximal inhibitory concentration (IC50) is 1 to 10 nM.
`Cc1cc(F)c(C(=O)Nc2cccc(-c3nnnn3C3CC3)n2)cc1-n1cnc(C2CC2)c1` [Example 2a, 5-(4-cyclopropyl-1H-imidazol-1-yl)-2-fluoro-N-(6-(1-cyclopropyl-1H-tetrazol-5-yl)pyridin-2-yl)-4-methylbenzamid] returned an IC50 of 1 to 10 nM.
For the compound `C[C@H](CO)n1nnnc1-c1cccc(NC(=O)c2cc(-n3cnc(C4CC4)c3)c(C(F)F)cn2)n1` [Example 55a], the IC50 lay within 1 to 10 nM.
`Cc1cc(F)c(C(=O)Nc2cccc(-c3nnnn3C3CCC3)n2)cc1-n1cnc(C2CC2)c1` [Example 10a] showed an IC50 of 1 to 10 nM.
To `Cc1cc(F)c(C(=O)Nc2cccc(-c3nnnn3[C@H]3C[C@@H](O)C3)n2)cc1-n1cnc(C2CC2)c1` [Example 21a] belongs 1 to 10 nM; to `Cc1cc(F)c(C(=O)Nc2cccc(-c3nnnn3C(C)C)c2)cc1-n1cnc(C2CC2)c1` [Example 35a], 10 to 100 nM; to `Cc1cc(F)c(C(=O)Nc2cccc(-c3nnnn3C3CC(F)(F)C3)n2)cc1-n1cnc(C2CC2)c1` [Example 11a], 1 to 10 nM.
Compound `COc1cc(C)c(-n2cnc(C3CC3)c2)cc1C(=O)Nc1cccc(-c2nnnn2C(C)C)n1` [Example 60a] registered a 50% inhibitory concentration (IC50) of 1 to 10 nM.
Consider `CC(C)n1nnnc1-c1nc(NC(=O)c2cc(-n3cnc(C4CC4)c3)c(C(F)(F)F)cn2)cs1` [Example 59a], for which the IC50 is 1 to 10 nM.
Turning to `Cc1cc(F)c(C(=O)Nc2cccc(-n3nnnc3C(C)C)n2)cc1-n1cnc(C(F)(F)F)c1` [Example 2b], the IC50 was > 100 nM.
Compound `Cc1cnc(C(=O)Nc2cccc(-c3nnnn3[C@H](C)CO)n2)cc1-n1cnc(C(F)(F)F)c1` [Example 51a] returned an IC50 of 1 to 10 nM.
In the case of `CC(=O)NC[C@@H](C)n1nnnc1-c1cccc(NC(=O)c2cc(-n3cnc(C4CC4)c3)c(C)cc2F)n1` [Example 20a], the IC50 was 10 to 100 nM.
Consider `Cc1cc(F)c(C(=O)Nc2cccc(-n3ccnc3C(C)C)n2)cc1-n1cnc(C2CC2)c1` [Example 3c, 5-(4-cyclopropyl-1H-imidazol-1-yl)-2-fluoro-N-(6-(2-isopropyl-1H-imidazol-1-yl)pyridin-2-yl)-4-methylbenzamide], for which the half-inhibitory concentration (IC50) is > 1000 nM.
For the compound `C[C@H](CO)n1nnnc1-c1cccc(NC(=O)c2cc(-n3cnc(C4CC4)c3)c(CO)cc2F)n1` [Example 33a, (R)-5-(4-cyclopropyl-1H-imidazol-1-yl)-2-fluoro-4-(hydroxymethyl)-N-(6-(1-(1-hydroxypropan-2-yl)-1H-tetrazol-5-yl)pyridin-2-yl)benzamide], the IC50 fell in the range of 1 to 10 nM.
With `CC(C)n1nnnc1-c1nc(NC(=O)c2cc(-n3cnc(C4CC4)c3)c(N3CCCCC3)cn2)cs1` [Example 41a], the IC50 lay within 10 to 100 nM.
On to `CC(=O)OC[C@H](C)n1nnnc1-c1cccc(NC(=O)c2cc(-n3cnc(C4CC4)c3)c(C)cc2F)n1` [Example 4a, (S)-2-(5-(6-(5-(4-cyclopropyl-1H-imidazol-1-yl)-2-fluoro-4-methyl-benzamido)pyridin-2-yl)-1H-tetrazol-1-yl)propyl acetate], for which the IC50 was in the range of 1 to 10 nM.
Compound `CCCC(=O)OC[C@@H](C)n1nnnc1-c1cccc(NC(=O)c2cc(-n3cnc(C4CC4)c3)c(C)cc2F)n1` [Example 24a] had an IC50 of 10 to 100 nM.
